Read-outs that look alike come from different tables or passages of the source.
How the values were obtained:
Assay type in all cases: cell-based
[1] = system: MDA-MB-468; assay: cells; settings: MDA-MB-468 (Breast Cancer), 10 μM, 48 hours
[2] = system: UACC-257; assay: cells; settings: UACC-257 (Melanoma), 10 μM, 48 hours
[3] = system: UACC-62; assay: cells; settings: UACC-62 (Melanoma), 10 μM, 48 hours
[4] = system: MDA-MB-435; assay: cells; settings: MDA-MB-435 (Melanoma), 10 μM, 48 hours
[5] = system: SF-295; assay: cells; settings: SF-295 (CNS Cancer), 10 μM, 48 hours
[6] = system: BT-549; assay: cells; settings: BT-549 (Breast Cancer), 10 μM, 48 hours
[7] = system: MOLT-4; assay: cells; settings: MOLT-4 (Leukemia), 10 μM, 48 hours
[8] = system: HT29; assay: cells; settings: HT29 (Colon Cancer), 10 μM, 48 hours
[9] = system: OVCAR-5; assay: cells; settings: OVCAR-5 (Ovarian Cancer), 10 μM, 48 hours
[10] = system: NCI-H322M; assay: cells; settings: NCI-H322M (Non-Small Cell Lung Cancer), 10 μM, 48 hours
[11] = system: NCI-H522; assay: cells; settings: NCI-H522 (Non-Small Cell Lung Cancer), 10 μM, 48 hours
[12] = system: SN12C; assay: cells; settings: SN12C (Renal Cancer), 10 μM, 48 hours
[13] = system: 786-0; assay: cells; settings: 786-0 (Renal Cancer), 10 μM, 48 hours
[14] = system: DU-145; assay: cells; settings: DU-145 (Prostate Cancer), 10 μM, 48 hours
[15] = system: MALME-3M; assay: cells; settings: MALME-3M (Melanoma), 10 μM, 48 hours
[16] = system: SNB-19; assay: cells; settings: SNB-19 (CNS Cancer), 10 μM, 48 hours
[17] = system: OVCAR-3; assay: cells; settings: OVCAR-3 (Ovarian Cancer), 10 μM, 48 hours
[18] = system: CCRF-CEM; assay: cells; settings: CCRF-CEM (Leukemia), 10 μM, 48 hours
[19] = system: 55 to 60 cancer cell lines; settings: 10 μM; for Mean (mean growth percentage of the tested cancer cell lines): all tested cell lines
[20] = system: OVCAR-4; assay: cells; settings: OVCAR-4 (Ovarian Cancer), 10 μM, 48 hours
[21] = system: HS 578T; assay: cells; settings: HS 578T (Breast Cancer), 10 μM, 48 hours
[22] = system: human PC-3 cells; assay: Sulforhodamine B (SRB) assay, cytotoxicity against PC-3 cells; settings: for IC50: Homo sapiens
Procedure, shortened: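 PC-3 cells in 5% FBS were fixed with 10% TCA after 24 h as T0, then treated with compound for 48 h, fixed, stained with 0.4% SRB in 1% acetic acid and solubilized in 10 mmol/L Trizma base. Absorbance was read at 515 nm. GI% = 100−[(Tx−T0)/(C−T0)]×100, and IC50 is the concentration halving total protein.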

[23] = system: OVCAR-8; assay: cells; settings: OVCAR-8 (Ovarian Cancer), 10 μM, 48 hours
[24] = system: CAKI-1; assay: cells; settings: CAKI-1 (Renal Cancer), 10 μM, 48 hours
[25] = system: PC-3; assay: cells; settings: PC-3 (Prostate Cancer), 10 μM, 48 hours
[26] = system: T-47D; assay: cells; settings: T-47D (Breast Cancer), 10 μM, 48 hours
[27] = system: KM12; assay: cells; settings: KM12 (Colon Cancer), 10 μM, 48 hours
[28] = system: SK-MEL-28; assay: cells; settings: SK-MEL-28 (Melanoma), 10 μM, 48 hours
[29] = system: SR; assay: cells; settings: SR (Leukemia), 10 μM, 48 hours
[30] = system: ACHN; assay: cells; settings: ACHN (Renal Cancer), 10 μM, 48 hours

SMILES | growth percentage [1] | growth percentage [2] | growth percentage [3] | growth percentage [4] | growth percentage [5] | growth percentage [6] | growth percentage [7] | growth percentage [8] | growth percentage [9] | growth percentage [10] | growth percentage [11] | growth percentage [12] | growth percentage [13] | growth percentage [14] | growth percentage [15] | growth percentage [16] | growth percentage [17] | growth percentage [18] | Mean (mean growth percentage of the tested cancer cell lines) ([19]; 48 hours) | growth percentage [20] | also measured
CC1CCN(c2nc3ccccc3c3c2-c2ccc(Cl)cc2C3=O)CC1 [SJ-6, 9-Chloro-6-(4-methylpiperidin-1-yl)-11H-indeno[1,2-c]quinolin-11-one] | 97.12% | 106.47% | 93.36% | 104.53% | 96.18% | 95.52% | 94.41% | 104.84% | 104.92% | 107.08% | 98.45% | 99.08% | 102.73% | 103.47% | 98.31% | 103.87% | 97.59% | 104.33% | 96.2% | 97.11% | growth percentage [21]: 98.38%; Toxicity (%) ([22]; SRB assay, PC-3 cells): 0%; GI % (10 μM) ([22]; SRB assay, PC-3 cells): 89.81%; growth percentage [23]: 96.38%; growth percentage [24]: 83.89%; growth percentage [25]: 90.64%; growth percentage [26]: 67.68%; growth percentage [27]: 94.80%; growth percentage [28]: 105.21%; growth percentage [29]: 98.51%; growth percentage [30]: 94.75%
O=C1c2cc(Cl)ccc2-c2c(N3CCN(C(=O)N4CCCCC4)CC3)nc3ccccc3c21 [SJ-23] | 106.42% | 104.23% | 93.92% | 102.57% | 97.83% | 105.34% | 104.77% | 108.65% | 102.33% | 94.59% | 99.28% | 101.12% | 105.05% | 114.04% | 102.62% | 108.66% | 103.33% | 109.87% | 100.53% | 98.31% | growth percentage [21]: 102.06%; Toxicity (%) ([22]; SRB assay, PC-3 cells): 43%; GI % (10 μM) ([22]; SRB assay, PC-3 cells): 100%; growth percentage [23]: 104.73%; growth percentage [24]: 90.50%; growth percentage [25]: 93.07%; growth percentage [26]: 95.99%; growth percentage [27]: 101.58%; growth percentage [28]: 107.03%; growth percentage [29]: 105.15%; growth percentage [30]: 95.59%
O=C1c2cc(Cl)ccc2-c2c(Cl)nc3ccccc3c21 [TC-XCl-1, 6,9-Dichloro-11H-indeno[1,2-c]quinolin-11-one] | 107.92% | 127.99% | 94.45% | 100.46% | 92.80% | 119.62% | 70.83% | 104.27% | 137.00% | 95.38% | 89.37% | 88.03% | 112.40% | 113.91% | 102.06% | 101.30% | 119.93% | 64.86% | 98.17% | 94.13% | number of cancer cell lines whose growth is inhibited ([19]; including leukemia and breast cancer cells): 9; growth percentage [21]: 91.01%; IC50 ([22]; SRB assay, PC-3 cells, 48 hours, read-out: IC50): > 15 µM; growth percentage [23]: 101.08%; growth percentage [24]: 75.67%; growth percentage [25]: 92.73%; growth percentage [26]: 86.97%; growth percentage [27]: 111.92%; growth percentage [28]: 90.08%; growth percentage [29]: 65.85%; growth percentage [30]: 111.67%
CN1CCN(c2nc3ccccc3c3c2-c2ccc(Cl)cc2C3=O)CC1 [SJ-12, 9-Chloro-6-(4-methylpiperazin-1-yl)-11H-indeno[1,2-c]quinolin-11-one] | 95.71% | 95.34% | 96.67% | 98.43% | 90.01% | 82.89% | 92.90% | 93.76% | 99.31% | 87.41% | 96.62% | 83.57% | 89.51% | 102.37% | 106.59% | 85.41% | 93.41% | 92.44% | 88.15% | 94.70% | growth percentage [21]: 70.47%; Toxicity (%) ([22]; SRB assay, PC-3 cells): 0%; GI % (10 μM) ([22]; SRB assay, PC-3 cells): 39.4%; growth percentage [23]: 87.51%; growth percentage [24]: 83.81%; growth percentage [25]: 82.93%; growth percentage [26]: 76.27%; growth percentage [27]: 99.06%; growth percentage [28]: 110.81%; growth percentage [29]: 75.13%; growth percentage [30]: 88.10%
CN(C)c1nc2ccccc2c2c1-c1ccc(Cl)cc1C2=O [SJ-2, 9-Chloro-6-(dimethylamino)-11H-indeno[1,2-c]quinolin-11-one] | 0.60% | 101.11% | 78.16% | 97.33% | 93.22% | 102.55% | 88.92% | 94.89% | 89.14% | 78.83% | 88.97% | 95.38% | 108.01% | 106.50% | 111.50% | 104.19% | 103.48% | 92.13% | 87.15% | 84.28% | inhibition effect in different cancer cell lines (summary of the NCI data, in words) ([19]; 48 hours): more effective in breast cancer cell line; growth percentage [21]: 72.84%; IC50 ([22]; PC-3, 48 h): 4.34 µM; growth percentage [23]: 84.55%; growth percentage [24]: 84.65%; growth percentage [25]: 82.55%; growth percentage [26]: 44.88%; growth percentage [27]: 94.44%; growth percentage [28]: 113.43%; growth percentage [29]: 86.12%; growth percentage [30]: 87.55%
